# In paper PMC7660650, “Chemical Starting Matter for HNF4α Ligand Discovery and Chemogenomics” (International Journal of Molecular Sciences, 2020):
# Several values for one entry are separate records, joined by “and”; a condition that tells them apart may be missing. Equal values may be shown once.
# Target: T1, Gal4-HNF4α (human HNF4α LBD) (Homo sapiens, UniProt P41235)
# T1 construct: uniprot entry: P41235-1, residues 142-377; expressed in transfected cells; host or cells: HEK293T
# T1 sequence (P41235 142-377): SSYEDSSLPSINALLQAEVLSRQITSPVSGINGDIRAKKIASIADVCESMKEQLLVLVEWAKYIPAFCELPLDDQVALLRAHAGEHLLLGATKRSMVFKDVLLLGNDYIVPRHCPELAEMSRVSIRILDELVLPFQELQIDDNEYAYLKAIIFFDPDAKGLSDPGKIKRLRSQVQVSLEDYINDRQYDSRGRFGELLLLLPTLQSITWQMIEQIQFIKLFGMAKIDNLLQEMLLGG
# Assay: Hybrid Gal4-HNF4α reporter gene assay in transiently transfected HEK293T cells
# Type: cell-based
# Settings: not given
row,SMILES,HNF4a-screening_activity_(mean_of_n=2)
1,"c1ccc(C2COCCN2)cc1 (stereo not drawn) [Prestw-Frag-3705, C1COCC(N1)c1ccccc1]",0.9945
2,"CCOc1ccccc1OCC1CNCCO1 (stereo not drawn) [Prestw-Frag-2992, CCOc1ccccc1OCC1CNCCO1]",0.7878

# Same assay, conditions: Table S1, primary screening, 50 µM
row,SMILES,HNF4a-screening_activity_(mean_of_n=2)
1,"NCCc1c[nH]c2ccc(O)cc12 [Prestw-Frag-1643, NCCc1c[nH]c2ccc(O)cc12]",1.007
2,"CC(C)(C)OC(=O)/C=C/c1ccccc1 [Prestw-Frag-2947, CC(C)(C)OC(=O)\C=C\c1ccccc1]",1.247
3,"NCCc1ccc(S(N)(=O)=O)cc1 [Prestw-Frag-1076, NCCc1ccc(cc1)S(N)(=O)=O]",1.134 and 1.077
4,"O=C(O)c1cnccn1 [Prestw-Frag-1495, OC(=O)c1cnccn1]",1.013
5,"Nc1ccnn1-c1ccccc1 [Prestw-Frag-1648, Nc1ccnn1-c1ccccc1]",1.023
6,"Cc1[nH]cnc1CO [Prestw-Frag-3752, Cc1[nH]cnc1CO]",1.105
7,"Cc1cc(N)no1 [Prestw-Frag-1647, Cc1cc(N)no1]",0.9773
8,"COC(=O)c1c[nH]c2ccccc12 [Prestw-Frag-2799, COC(=O)c1c[nH]c2ccccc12]",0.9379
9,"CCOC(=O)c1cccnc1 [Prestw-Frag-3382, CCOC(=O)c1cccnc1]",1.112
10,"CCCCOc1cc(C(=O)NC)c2ccccc2n1 [Prestw-Frag-1228, CCCCOc1cc(C(=O)NC)c2ccccc2n1]",0.8368 and 0.967
11,"N#CC1(c2ccc(F)cc2)CCCCC1 [Prestw-Frag-2647, Fc1ccc(cc1)C1(CCCCC1)C#N]",0.99
12,"c1ccc2c(c1)CCNCC2 [Prestw-Frag-3750, C1Cc2ccccc2CCN1]",1.099
13,"CCN1CCCC1CNC(=O)c1ccc(N)cc1 (stereo not drawn) [Prestw-Frag-1632, CCN1CCCC1CNC(=O)c1ccc(N)cc1]",0.8541
14,"c1ccc(-c2nnn[nH]2)cc1 [Prestw-Frag-2887, c1ccc(cc1)-c1nnn[nH]1]",0.9719
15,"Cn1cc(CC(=O)O)c2ccccc21 [Prestw-Frag-3461, Cn1cc(CC(O)=O)c2ccccc12]",1.168
16,"COc1cc(C(N)=O)cc(OC)c1OC [Prestw-Frag-1731, COc1cc(cc(OC)c1OC)C(N)=O]",0.8442
17,"c1ccc(C(c2ccccc2)n2cncn2)cc1 [Prestw-Frag-2645, c1ncn(n1)C(c1ccccc1)c1ccccc1]",0.9885
18,"c1cnc2[nH]ncc2c1 [Prestw-Frag-1428, c1n[nH]c2ncccc12]",1.325
19,"CN(C)CCCC(=O)c1ccc(F)cc1 [Prestw-Frag-3693, CN(C)CCCC(=O)c1ccc(F)cc1]",1.093
20,"O=C(O)CCc1ncc(-c2ccccc2)o1 [Prestw-Frag-2693, OC(=O)CCc1ncc(o1)-c1ccccc1]",0.8237
21,"Clc1ccc2c(c1)Nc1ccccc1CC2 [Prestw-Frag-1101, Clc1ccc2CCc3ccccc3Nc2c1]",2.203
22,"Nc1ccc(Cl)nn1 [Prestw-Frag-1184, Nc1ccc(Cl)nn1]",0.9468
23,"CN1C(=O)CCC1=O [Prestw-Frag-2713, CN1C(=O)CCC1=O]",0.9037

row,SMILES,HNF4a-screening_activity_(mean_of_n=2)
1,"Oc1ccc(-c2ccc(F)cc2F)cc1 [Prestw-Frag-1237, Oc1ccc(cc1)-c1ccc(F)cc1F]",0.9944
2,"Fc1ccc(CN2CCNCC2)cc1 [Prestw-Frag-3673, Fc1ccc(CN2CCNCC2)cc1]",1.124
3,"CNCCN(C)C(c1ccccc1)c1ccccc1 [Prestw-Frag-3452, CNCCN(C)C(c1ccccc1)c1ccccc1]",1.151
4,"CS(=O)(=O)Nc1ccccc1 [Prestw-Frag-2755, CS(=O)(=O)Nc1ccccc1]",0.9874
5,"NC(=O)c1ccc2[nH]ccc2c1 [Prestw-Frag-3336, NC(=O)c1ccc2[nH]ccc2c1]",1.118
6,"Oc1ccc(Cc2ccccc2)cc1 [Prestw-Frag-3455, Oc1ccc(Cc2ccccc2)cc1]",0.7887
7,"O=c1[nH]cncc1-c1ccccc1 [Prestw-Frag-3734, O=c1[nH]cncc1-c1ccccc1]",1.236
8,"c1ccc(CNc2ccccn2)cc1 [Prestw-Frag-1475, C(Nc1ccccn1)c1ccccc1]",1.278
9,"COc1cc2c(cc1OC)CN(C)CC2 [Prestw-Frag-1275, COc1cc2CCN(C)Cc2cc1OC]",0.9717 and 0.8575
10,"COc1ccc(OCC(N)=O)cc1 [Prestw-Frag-1812, COc1ccc(OCC(N)=O)cc1]",0.9996 and 1.207
11,"Oc1cc(Cl)c(Cl)cc1Cl [Prestw-Frag-2898, Oc1cc(Cl)c(Cl)cc1Cl]",5.433
12,"OC(Cn1ccnc1)c1ccc(Cl)cc1Cl (stereo not drawn) [Prestw-Frag-1182, OC(Cn1ccnc1)c1ccc(Cl)cc1Cl]",1.1
13,"O=C(O)c1cccc(-c2ccc(F)cc2F)c1 [Prestw-Frag-1238, OC(=O)c1cccc(c1)-c1ccc(F)cc1F]",1.01
14,"COc1ccc(S(=O)(=O)N2CCNCC2)cc1 [Prestw-Frag-3313, COc1ccc(cc1)S(=O)(=O)N1CCNCC1]",1.073
15,"COc1ccc2ccncc2c1 [Prestw-Frag-1133, COc1ccc2ccncc2c1]",1.332
16,"OC1c2ccccc2CCc2ccccc21 [Prestw-Frag-2600, OC1c2ccccc2CCc2ccccc12]",0.7017
17,"NCC1(c2ccccc2)CC1 [Prestw-Frag-3751, NCC1(CC1)c1ccccc1]",0.9761
18,"O=C1CCOc2ccccc21 [Prestw-Frag-1740, O=C1CCOc2ccccc12]",0.9806
19,"COc1ccc(Cc2ccc(OC)cc2)cc1 [Prestw-Frag-1033, COc1ccc(Cc2ccc(OC)cc2)cc1]",1.259 and 1.114
20,"CCCC(=O)c1ccc(F)cc1 [Prestw-Frag-1368, CCCC(=O)c1ccc(F)cc1]",1.103
21,"NC1=NCCN1 [Prestw-Frag-1268, NC1=NCCN1]",1.024
22,"C[N+](C)(CCO)Cc1ccccc1 [Prestw-Frag-1017, C[N+](C)(CCO)Cc1ccccc1]",0.8969 and 1.169
23,"Cc1c[nH]nc1C [Prestw-Frag-1408, Cc1c[nH]nc1C]",1.108

row,SMILES,HNF4a-screening_activity_(mean_of_n=2)
1,"CNCCc1ccc(OC)c(OC)c1 [Prestw-Frag-1446, CNCCc1ccc(OC)c(OC)c1]",1.187 and 1.106
2,"CCC(=O)Nc1ccc(CC(=O)O)cc1 [Prestw-Frag-2362, CCC(=O)Nc1ccc(CC(O)=O)cc1]",0.9958
3,"CCOC(=O)C1c2ccccc2Oc2ccccc21 [Prestw-Frag-1348, CCOC(=O)C1c2ccccc2Oc2ccccc12]",0.8228
4,"NCc1c(N)ccc(Cl)c1Cl [Prestw-Frag-1039, NCc1c(N)ccc(Cl)c1Cl]",1.196 and 1.044
5,"O=C1COc2cc(O)ccc21 [Prestw-Frag-3703, Oc1ccc2C(=O)COc2c1]",1.217
6,"O=c1[nH]nc(Cc2ccc(Cl)cc2)c2ccccc12 [Prestw-Frag-1559, Clc1ccc(Cc2n[nH]c(=O)c3ccccc23)cc1]",1.206 and 0.9531
7,"NC1CCc2ccccc21 (stereo not drawn) [Prestw-Frag-3462, NC1CCc2ccccc12]",1.151
8,"c1ccc(C(c2ccccc2)N2CCCNCC2)cc1 [Prestw-Frag-1817, C1CNCCN(C1)C(c1ccccc1)c1ccccc1]",0.7059 and 1.011
9,"COc1ccc(CN2CCNCC2)cc1 [Prestw-Frag-2212, COc1ccc(CN2CCNCC2)cc1]",1.195
10,"COc1ccc2[nH]cnc2c1 [Prestw-Frag-3678, COc1ccc2[nH]cnc2c1]",0.9895
11,"Clc1ccc(-c2cncnc2)cc1 [Prestw-Frag-1704, Clc1ccc(cc1)-c1cncnc1]",0.9459 and 1.223
12,"CCC1=C(C)CN(C(=O)NCCc2ccccc2)C1=O [Prestw-Frag-1075, CCC1=C(C)CN(C(=O)NCCc2ccccc2)C1=O]",1.214
13,"CN1CCC[C@H]1c1cccnc1 [Prestw-Frag-1187, CN1CCC[C@H]1c1cccnc1]",1.172
14,"NC(=O)CN1C(=O)c2ccccc2C1=O [Prestw-Frag-1661, NC(=O)CN1C(=O)c2ccccc2C1=O]",1.028
15,"CN1CCN(CCCC(=O)c2ccc(F)cc2)CC1 [Prestw-Frag-3692, CN1CCN(CCCC(=O)c2ccc(F)cc2)CC1]",1.385
16,"COC(=O)C(O)c1ccccc1 (stereo not drawn) [Prestw-Frag-2423, COC(=O)C(O)c1ccccc1]",1.193
17,"Clc1cccc(CN2CCNCC2)c1 [Prestw-Frag-1700, Clc1cccc(CN2CCNCC2)c1]",1.014 and 1.092
18,"CCN(CC)CCOC(=O)c1ccccc1 [Prestw-Frag-1735, CCN(CC)CCOC(=O)c1ccccc1]",0.9109 and 1.027
19,"O=C(CCCN1CCNCC1)c1ccc(F)cc1 [Prestw-Frag-3426, Fc1ccc(cc1)C(=O)CCCN1CCNCC1]",1.191
20,"CC(C)NCC(O)c1ccccc1 (stereo not drawn) [Prestw-Frag-2168, CC(C)NCC(O)c1ccccc1]",1.078
21,"O=C(O)c1cc(-c2ccc(F)cc2)ccc1O [Prestw-Frag-1239, OC(=O)c1cc(ccc1O)-c1ccc(F)cc1]",1.018 and 1.049
